“Also recorded” adds a separate entry of the source. Where a SMILES comes first, the peptide text is derived from it. [ ]: non-standard residue; d: D form.
What was measured:
[1] = system: cerebellar granule neurons; test: Live/Dead (Red/Green) viability assay in cultured cerebellar granule neurons; format: cell-based, rat; details: 24 h peptide treatment, HK medium
Protocol: Neuronal cultures were switched to serum-free medium T-peptide, K-peptide, Core-peptide, V-peptide. VV-peptide, and T (L)-peptide. All peptides were used at 25 μM concentration. Phase contrast micrographs show appearance of the cultures after 24 h of peptide treatment. The Live/Dead viability assay was also performed. Nuclei of dead cells are stained red whereas cytoplasm of living cells are stained green. In the case of sick and dying cells, green staining is condensed;
(§1) Cerebellar granule neurons were switched to serum-free medium containing various concentrations of T-peptide, K-peptide, Core-peptide, V-peptide, VV-peptide, and T (L)-peptide. Cell viability was measured using two independent methods 24 h after peptide treatment and results are graphed. * indicates p<0.05 compared with control cells that were treated with HK: (4A) Results from Red/Green viability assay, (4B) Results from MTT assay;
Culturing and treatment of neurons: Cerebellar granule neurons were cultured from 7-8 day old rats as previously described. The neurons were plated in 24-well with poly-L-lysine coated glass coverslips at a density of ˜1 million cells/well in Basal Eagle's Medium with Earle's salts (BME) supplemented with 10% FCS, 25 mM KCl, 2 mM glutamine and […] gentamicin. To prevent mitosis of glial cells, cytosine arabinofuranoside ([…]) was added to culture 16-20 hrs after plating. Neuronal cultures were treated with peptides 6-7 days after plating. For treatment, the cultures were switched to serum-free medium containing 25 mM KCl (referred to as high potassium or HK medium). Although serum is required for proper maturation, after 5 days in culture, the neurons survive normally in the absence of serum provided depolarizing levels of KCl is added.
Cell viability quantification: Cell viability was quantified using the Live/Dead assays with a commercially available kit (Invitrogen). This is a two-color fluorescence assay utilizing two cell-permeable compounds, calcein acetoxymethyl (calcein AM) and ethidium homodimer-1 (EthD-1). Live cells have intracellular esterases that convert non-fluorescent calcein AM to the intensely green fluorescent calcein, which is retained within the cytoplasm of cells. Because dead cells have damaged membranes, EthD-1 enters and is fluorescent when bound to nucleic acids. EthD-1 stains the nuclei of damaged or dead cells. As recommended by the manufacturer, cells plated in wells with cover-slips were incubated in Live/Dead reagent (1 uM calcein AM and 4 uM EthD-1) for 30 min, and then mounted on slides. Cell viability was also analyzed using the MTT [3-(4,5-Dimethylthiazol-2-yl)-2,5-diphenyltetrazolium bromide] assay based on the evaluation of mitochondrial function. MTT assays were performed as previously described. Briefly, MTT (5 mg/ml in culture medium) was added to the culture medium and the cells incubated at 37° C. for 1 h. The assay was stopped by adding lysis buffer [20% sodium dodecyl sulfate (SDS) in 50% N,N-dimethylformamide, pH 4.7]. Absorbance was measured spectrophotometrically at 570 nm after an overnight incubation at room temperature.

[2] = previously shown [19, 20]; cited from earlier work
[3] = Polymerization kinetics by Thioflavin S (ThS) fluorescence in the presence of heparin; format: physicochemical; details: for A (first phase / growth curve): ST-peptide according to Eqn. [2]
Protocol: Aggregation kinetics of T-peptide (filled triangles), V-peptide (filled diamonds), F-peptide (X), Core peptide (open triangles), VV-peptide (open diamonds) and K-peptide (filled circles). […] Solid lines represent fitted values;
Kinetic analysis: Polymerization kinetics were measured by monitoring the increase in Thioflavin S (ThS) fluorescence at 490 nm (440 nm excitation). Slit widths were 15 and 20 nm respectively for excitation and emission. All measurements were carried out at 21° C. with a Perkin Elmer LS50B spectrofluorimeter using a 75 μL quartz cell. Data points were collected at 6 s intervals over the course of the experiment (60 min). In order to initiate polymerization a freshly filtered stock solution was diluted to 10 μM in 200 μL of Buffer A containing 33 μM heparin (Sigma-Aldrich; 3,000 MW) and 100 μM Thioflavin S (ThS). Kinetics data, corrected for the blank, were fit using a non-linear least squares algorithm to a Gompertz-like growth curve {{260 Necula, M. 2004}} (Eqn.)
where y is defined as the fluorescence signal at time t, ti corresponds to the inflection point of the curve, or the time of maximum growth rate, A is the maximum fluorescence observed for a given sample, and b=1/k, where k is the rate constant of aggregation, in units of s^−1. Lag-times were calculated as ti−b. The pre-growth curve exponential, e^(−k′t) was inserted to take into account the slow decrease in fluorescent intensity resulting from ThS bleaching, quenching and gravitational precipitation of the amyloid-ThS complex. Standard errors in fitted parameters were estimated assuming a 10% error in the sum of the squares.

[4] = system: cerebellar granule neurons; test: MTT assay in cerebellar granule neurons; format: cell-based, rat; details: 24 h peptide treatment
Protocol: as §1
Culturing and treatment of neurons: Cerebellar granule neurons were cultured from 7-8 day old rats as previously described. The neurons were plated in 24-well with poly-L-lysine coated glass coverslips at a density of ˜1 million cells/well in Basal Eagle's Medium with Earle's salts (BME) supplemented with 10% FCS, 25 mM KCl, 2 mM glutamine and […] gentamicin. […]
Cell viability quantification: Cell viability was quantified using the Live/Dead assays with a commercially available kit (Invitrogen). This is a two-color fluorescence assay utilizing two cell-permeable compounds, calcein acetoxymethyl (calcein AM) and ethidium homodimer-1 (EthD-1). […] Cell viability was also analyzed using the MTT [3-(4,5-Dimethylthiazol-2-yl)-2,5-diphenyltetrazolium bromide] assay based on the evaluation of mitochondrial function. […] Absorbance was measured spectrophotometrically at 570 nm after an overnight incubation at room temperature.

[5] = Transmission electron microscopy (TEM) of peptide aggregates; format: physicochemical; details: 100 μM peptide in Buffer A, uranyl acetate stain
Protocol: All peptides were prepared at 100 μM in Buffer A and stained with uranyl acetate;
Transmission Electron Microscopy (TEM): Filtered stock peptide solutions were diluted to 100 μM in 5 mM MOPS containing 0.1% NaN3, 0.15 M NaCl, pH 7.2 (Buffer A) and were incubated at room temperature overnight. Samples were loaded onto carbon-coated Formvar copper grids (200 mesh) and stained with 2% wt/wt uranyl acetate. A JEOL 1200 EX scope interfaced to a digital camera was used to visualize samples.

culture = test: Neurotoxicity of non-tau related aggregating peptides in culture; format: cell-based; details: FIG. 13
Description: FIG. 13 is an image of the non-tau related aggregating peptides are not neurotoxic.

CC(=O)N[C@@H](C(=O)N[C@H](CCC(N)=O)C(=O)N[C@@H](C(=O)N[C@@H](C(=O)N[C@@H](C(=O)N[C@H](CCCCN)C(=O)N[C@@H](CCCNC(=N)N)C(=O)N[C@@H](CCCNC(=N)N)C(=O)N[C@@H](CCCNC(=N)N)C(=O)N[C@@H](CCCNC(=N)N)C(=O)N[C@@H](CCCNC(=N)N)C(=O)N[C@@H](CCCNC(=N)N)C(=O)N[C@@H](CCCNC(=N)N)C(=O)N[C@@H](CCCNC(=N)N)C(=O)N[C@@H](CCCNC(=N)N)C(N)=O)C(C)C)C(C)C)C(C)C)C(C)C [VV-peptide, Ac-vqvvvkR9—NH2]
neurotoxicity / effect on neuronal survival [1]: neither K-peptide nor VV-peptide reduced neuronal survival

Ac-^306VQIVYK^311-NH2 [AcPHF6]
critical concentration above which peptide polymerizes into amyloid fibrils [2]: about 2 μM

Ac-VQIVFK-R9—NH2 (Ac-VQIVFKRRRRRRRRR-NH2) [F-peptide]
neurotoxicity / effect on neuronal survival [1]: induces toxicity | A (maximum fluorescence, fitted kinetic parameter) ([3]; 10 μM peptide, 33 μM heparin, 100 μM ThS, Buffer A pH 7.2, 21° C., NA = no aggregation observed by ThS fluorescence, ±10% error): 5.5 | self-aggregation in vitro ([3]; ThS fluorescence, heparin, 10 μM concentration): aggregate in a fashion similar to the Core peptide; also recorded: capable of self-aggregation in vitro

CC[C@@H](C)[C@@H](NC(=O)[C@@H](CCC(N)=O)NC(=O)[C@H](NC(C)=O)C(C)C)C(=O)N[C@@H](C(=O)N[C@H](Cc1ccc(O)cc1)C(=O)N[C@H](CCCCN)C(N)=O)C(C)C [Core-peptide, Ac-vqivyk-NH2] (Ac-[dV][dQ][dI][dV][dY][dK]-NH2)
neurotoxicity / effect on neuronal survival [1]: not toxic | MTT assay result (mitochondrial function, words) [4]: mitochondrial dysfunction

SQIVYA-R9 (SQIVYARRRRRRRRR) [SQ-peptide, de novo non-tau aggregating peptide]
A (first phase / growth curve) ([3]; ThS fluorescence): 8.8 | morphology of aggregates [5]: irregular non-uniform filaments similar to V-peptide | neurotoxicity in culture (culture): neither of these two peptides displayed neurotoxicity

CC(=O)N[C@@H](C(=O)N[C@H](CCC(N)=O)C(=O)N[C@@H](C(=O)N[C@@H](C(=O)N[C@H](Cc1ccc(O)cc1)C(=O)N[C@H](CCCCN)C(=O)N[C@@H](CCCNC(=N)N)C(=O)N[C@@H](CCCNC(=N)N)C(=O)N[C@@H](CCCNC(=N)N)C(=O)N[C@@H](CCCNC(=N)N)C(=O)N[C@@H](CCCNC(=N)N)C(=O)N[C@@H](CCCNC(=N)N)C(=O)N[C@@H](CCCNC(=N)N)C(=O)N[C@@H](CCCNC(=N)N)C(=O)N[C@@H](CCCNC(=N)N)C(N)=O)C(C)C)C(C)C)C(C)C [V-peptide, Ac-vqvvyk-R9—NH2]
neurotoxicity / effect on neuronal survival [1]: moderate level of cell death

STVIIE-R9 (STVIIERRRRRRRRR) [ST-peptide, non-tau aggregating peptide previously described by Pastor et al, reference compound]
lag time ([3]; ThS fluorescence): ~3000 s | A (first phase / growth curve) ([3]; ThS fluorescence): 4.9 | A′ (second period of more rapid aggregation) ([3]; according to Eqn. [2]): 6.3 | diameter of fibrils / filaments / amyloid bodies / fibers ([5]; overnight): 10-40 nm | morphology of aggregates [5]: amyloid sheets which appear to roll into irregular fibers | neurotoxicity in culture (culture): neither of these two peptides displayed neurotoxicity

CC[C@@H](C)[C@@H](NC(=O)[C@@H](CCC(N)=O)NC(=O)[C@H](NC(C)=O)C(C)C)C(=O)N[C@@H](C(=O)N[C@H](CCCCN)C(=O)N[C@H](CCCCN)C(=O)N[C@@H](CCCNC(=N)N)C(=O)N[C@@H](CCCNC(=N)N)C(=O)N[C@@H](CCCNC(=N)N)C(=O)N[C@@H](CCCNC(=N)N)C(=O)N[C@@H](CCCNC(=N)N)C(=O)N[C@@H](CCCNC(=N)N)C(=O)N[C@@H](CCCNC(=N)N)C(=O)N[C@@H](CCCNC(=N)N)C(=O)N[C@@H](CCCNC(=N)N)C(N)=O)C(C)C [K-peptide, Ac-vqivkk-R9—NH2]
neurotoxicity / effect on neuronal survival [1]: neither K-peptide nor VV-peptide reduced neuronal survival

CC(=O)N[C@@H](CCCNC(=N)N)C(=O)N[C@@H](CCCNC(=N)N)C(=O)N[C@@H](CCCNC(=N)N)C(=O)N[C@@H](CCCNC(=N)N)C(=O)N[C@@H](CCCNC(=N)N)C(=O)N[C@@H](CCCNC(=N)N)C(=O)N[C@@H](CCCNC(=N)N)C(=O)N[C@@H](CCCNC(=N)N)C(=O)N[C@@H](CCCNC(=N)N)C(N)=O [Ac—R9—NH2, reference compound]
neurotoxicity / effect on neuronal survival [1]: no effect on neuronal survival
